Laboratory results published in ChEMBL document CHEMBL5236591, “Targeting Gatekeeper Mutations for Kinase Drug Discovery” (J Med Chem, 2022).
Blank lines part the entries; values can stand above or below the compound they belong to.

How the values were obtained:
[1] = molecular target: Mast/stem cell growth factor receptor Kit (Homo sapiens, UniProt P10721); experiment: Inhibition of wild type KIT (unknown origin)
[2] = molecular target: Fibroblast growth factor receptor 4 (Mus musculus, UniProt Q03142); experiment: Inhibition of FGFR4 in mouse BaF3 cells; type: cell-based
Chain of Fibroblast growth factor receptor 4 (Q03142 whole entry): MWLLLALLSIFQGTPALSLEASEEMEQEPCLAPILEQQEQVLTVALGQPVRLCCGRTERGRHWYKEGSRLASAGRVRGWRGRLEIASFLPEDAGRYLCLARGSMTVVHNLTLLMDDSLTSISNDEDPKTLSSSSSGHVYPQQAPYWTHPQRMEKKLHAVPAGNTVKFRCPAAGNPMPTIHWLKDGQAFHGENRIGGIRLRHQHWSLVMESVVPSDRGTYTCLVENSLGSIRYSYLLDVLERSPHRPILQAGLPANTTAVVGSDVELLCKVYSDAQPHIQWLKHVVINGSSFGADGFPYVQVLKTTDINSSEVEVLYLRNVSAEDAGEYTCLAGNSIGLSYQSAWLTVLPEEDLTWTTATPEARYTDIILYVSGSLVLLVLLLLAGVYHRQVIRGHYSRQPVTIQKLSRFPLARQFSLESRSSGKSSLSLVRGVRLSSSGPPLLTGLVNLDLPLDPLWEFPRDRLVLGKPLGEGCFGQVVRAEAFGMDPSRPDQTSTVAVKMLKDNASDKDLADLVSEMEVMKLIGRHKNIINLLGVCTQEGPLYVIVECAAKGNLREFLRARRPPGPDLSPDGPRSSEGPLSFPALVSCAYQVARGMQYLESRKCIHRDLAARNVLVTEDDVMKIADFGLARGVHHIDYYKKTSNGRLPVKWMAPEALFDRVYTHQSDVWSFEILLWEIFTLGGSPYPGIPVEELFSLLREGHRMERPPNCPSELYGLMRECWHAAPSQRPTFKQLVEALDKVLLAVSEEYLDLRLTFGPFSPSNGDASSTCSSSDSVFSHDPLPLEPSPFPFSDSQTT

[3] = Antiproliferative activity against mouse 32D cells expressing FLT3-ITD assessed as cell growth inhibition; type: functional
[4] = Antiproliferative activity against mouse 32D cells expressing FLT3-ITD-F691L assessed as cell growth inhibition; type: functional
[5] = Antiproliferative activity against mouse 32D cells expressing FLT3-D835Y assessed as cell growth inhibition; type: functional
BaF3 [6] = experiment: Antiproliferative activity against mouse BaF3 cells harboring FLT3 F691L mutant assessed as cell growth inhibition; type: functional, cell-based
MOLM-14 = experiment: Antiproliferative activity against human MOLM-14 cells harboring FLT3 F691L mutant assessed as cell growth inhibition; type: functional, cell-based
BaF3 [7] = experiment: Antiproliferative activity against mouse BaF3 cells harboring FLT3 D835Y mutant assessed as cell growth inhibition; type: functional, cell-based
BaF3 [8] = experiment: cells; settings: Mus musculus
Description: Antiproliferative activity against mouse BaF3 cells harboring TRKA F589L mutant assessed as cell growth inhibition

Chain of Mast/stem cell growth factor receptor Kit (P10721 whole entry): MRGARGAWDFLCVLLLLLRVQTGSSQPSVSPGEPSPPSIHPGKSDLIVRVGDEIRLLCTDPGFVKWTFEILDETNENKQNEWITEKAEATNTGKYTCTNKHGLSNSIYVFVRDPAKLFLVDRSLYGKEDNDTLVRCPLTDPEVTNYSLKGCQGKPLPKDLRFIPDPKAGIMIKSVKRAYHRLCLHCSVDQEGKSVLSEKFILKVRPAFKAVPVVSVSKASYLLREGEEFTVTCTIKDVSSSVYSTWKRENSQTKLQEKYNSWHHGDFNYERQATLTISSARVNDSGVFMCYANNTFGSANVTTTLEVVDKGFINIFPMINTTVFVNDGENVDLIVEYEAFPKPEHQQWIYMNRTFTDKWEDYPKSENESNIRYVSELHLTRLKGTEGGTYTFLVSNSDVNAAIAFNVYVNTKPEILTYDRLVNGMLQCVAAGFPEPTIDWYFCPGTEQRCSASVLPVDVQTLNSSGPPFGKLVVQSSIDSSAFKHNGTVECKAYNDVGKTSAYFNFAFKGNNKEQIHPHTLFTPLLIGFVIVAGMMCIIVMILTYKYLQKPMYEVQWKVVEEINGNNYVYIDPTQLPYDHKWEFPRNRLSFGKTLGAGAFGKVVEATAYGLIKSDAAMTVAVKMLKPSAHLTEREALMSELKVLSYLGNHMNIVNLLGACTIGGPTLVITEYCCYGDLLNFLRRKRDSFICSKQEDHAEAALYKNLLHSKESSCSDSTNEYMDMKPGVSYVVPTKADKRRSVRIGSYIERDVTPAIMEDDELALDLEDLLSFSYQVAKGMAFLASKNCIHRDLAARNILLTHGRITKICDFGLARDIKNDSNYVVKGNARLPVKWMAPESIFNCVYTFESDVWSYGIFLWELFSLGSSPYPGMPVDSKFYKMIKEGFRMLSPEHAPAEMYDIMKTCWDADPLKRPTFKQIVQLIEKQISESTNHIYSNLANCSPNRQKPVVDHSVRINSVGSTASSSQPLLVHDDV

Compound: COCCOc1cc(F)c2c(Nc3ccc(NC(=O)Cn4cc(C(C)C)nn4)cc3)ncnc2c1
IC50 [1]: 3 nM

Compound: C=CC(=O)Nc1cc(N2CCC(N3CCOCC3)CC2)cc(F)c1Nc1n[nH]c2ccc(O[C@H](C)c3c(Cl)cncc3Cl)cc12
IC50 [2]: 3.5 nM

Compound: CCCNc1nc(Nc2ccc(C#N)cc2)ncc1C#CCCCNC(=O)[C@H](C)N(C)C(=O)/C=C/CN(C)C [FF-10101]
GI50 [3]: 1.9 nM
GI50 [4]: 10 nM
GI50 [5]: 0.81 nM

Results, then the compound that gave them:

IC50 (BaF3 [6]): 97 nM
IC50 (MOLM-14): 670 nM
IC50 (BaF3 [7]): 4700 nM
Compound: FC(F)(F)c1ccc(CNc2ccc(Cc3c[nH]c4ncc(Cl)cc34)cn2)cn1 [PEXIDARTINIB]

IC50 (BaF3 [8]): 27.8 nM
Compound: C[C@@H]1CCc2ncc(F)cc2[C@H]2CCCN2c2ccn3ncc(c3n2)C(=O)N1 [SELITRECTINIB]
